{"source": "patent US6387956B1", "about": "“Methods of treating obsessive-compulsive spectrum disorders” (University of Cincinnati, priority 1999, dated 2002)", "key": {"[1]": {"test": "Weight and appetite during the six week tramadol hydrochloride study", "assay_type": "in vivo, patients", "method": "(§1) Exclusion criteria for the study included a life-time DSM-IV diagnosis of mania, psychotic disorder, alcohol or substance abuse or dependence, prior history of hypersensitivity to tramadol or any other opioid, a history of seizures, including childhood febrile seizures, and any clinically relevant abnormal laboratory results or clinically unstable medical conditions. […] The patients were not concurrently receiving behavioral therapy.\n(§2) Patients were evaluated using the Yale-Brown Obsessive Compulsive Scale (Y-BOCS), the Hamilton Rating Scale for Depression (HAM-D) and the Clinical Global Impression Scale (CGI). Subsequent to screening, the individuals received a six week treatment with tramadol hydrochloride. The tramadol hydrochloride was initially administered at 50 mg four times a day for the first week. If there was less than a 20% drop in baseline Y-BOCS scores by the end of week one, the tramadol hydrochloride dose was advanced slowly over 1 to 2 weeks to a maximum of 400 mg per day in 3 to 5 divided doses. Weekly measurements with the Y-BOCS, HAM-D and CGI were used to assess responses. Y-BOCS and HAM-D values at the start and end of the trial were compared using the Wilcoxon signed-ranks test.\nWeekly mean ± standard deviation of weight and tramadol doses for the patients are set forth below in Table 2, while weights and tramadol hydrochloride doses for individual patients are set forth in Table 3. For data analysis purposes, when an individual's weight was not available, the weight from the previous week was carried forward."}, "[2]": {"tested_on": "SRI-treatment refractory OCD", "test": "Six week tramadol hydrochloride treatment of SRI-refractory OCD patients, assessed with Y-BOCS, HAM-D and CGI", "assay_type": "in vivo", "method": "as §1, §2\nThe mean ± standard deviation dose of tramadol hydrochloride for the six patients completing at least two weeks was 254±119 mg/day (divided into from 3 to 5 doses). The mean ± standard deviation of baseline and endpoint Y-BOCS, HAM-D and severity of illness CGI and global improvement CGI are set forth below in Table 1. […] The scores for the patient who dropped out in week 6 were carried forward from week 5."}, "[3]": {"test": "Example 3: weight of a OCD patient during 11 months of tramadol hydrochloride", "assay_type": "in vivo", "method": "A OCD patient was treated with tramadol hydrochloride for a total of 11 months, during the last month of the study the patient was titrated off the tramadol hydrochloride. The only additional prescribed medication was alendronic acid ((4-amino-1-hydroxybutylidene)bisphosphonic acid) started at week 6 for osteoporosis unrelated to tramadol use. (The patient has a family history of osteoporosis and previous steroid use.) The patient's weight and tramadol hydrochloride doses are set forth in Table 4 below."}, "OCD": {"tested_on": "OCD", "test": "Example 2: case of a person with OCD, Y-BOCS", "assay_type": "in vivo, patient", "method": "The tramadol hydrochloride therapy was then supplemented with 20 mg per day of fluoxetine, and three weeks later the fluoxetine was increased to 40 mg daily."}, "Tourette's syndrome": {"tested_on": "Tourette's syndrome", "test": "Example 4: case of a patient with major depressant disorder and Tourette's syndrome, motor tics", "assay_type": "in vivo", "details": "50 mg twice a day added to bupropion", "method": "A patient with a history of recurrent major depressant disorder was treated with extended release bupropion (1-(3-chlorophenyl)-2-[(1,1-dimethylethyl)amino]-1-[…]), at a total dose of 300 mg per day (200 mg in the morning and 100 mg in the evening). […] The patient also reported a history of purging. […] The patient was diagnosed as having major depressant disorder and Tourette's syndrome.\nThe bupropion was supplemented with 50 mg twice a day of tramadol. […] The patient estimated that the number of tics was reduced by about two-thirds after starting the tramadol. The patient's bupropion dose was increased to 400 mg per day (200 mg twice a day), while the tramadol dose was maintained at 50 mg twice a day. The patient was informed the tramadol dose could be increased to 50 mg four times a day if the number of tics increased."}, "[4]": {"details": "during tramadol hydrochloride treatment"}}, "note": "Structures can show the parent of a compound that is named as a salt."}
{"smiles": "COc1cccc(C2(O)CCCCC2CN(C)C)c1", "note": "(mixture of isomers) [tramadol hydrochloride, (±) cis-2-[(dimethylamino)methyl]-1(3-methoxyphenyl)cyclohexanolhydrochloride]", "values": [{"measurement": "Weight, mean ± SD", "setting": "[1]; Week 1, seven patients, baseline 173.36 ± 29.58", "value": "172.46 ± 29.9", "unit": "lbs"}, {"measurement": "Weight, mean ± SD", "setting": "[1]; Week 2, seven patients", "value": "170.39 ± 29.1", "unit": "lbs"}, {"measurement": "Weight, mean ± SD", "setting": "[1]; Week 3, seven patients", "value": "170.5 ± 29.64", "unit": "lbs"}, {"measurement": "Weight, mean ± SD", "setting": "[1]; Week 4, seven patients", "value": "169.46 ± 28.62", "unit": "lbs"}, {"measurement": "Weight, mean ± SD", "setting": "[1]; Week 5, seven patients", "value": "169.1 ± 28", "unit": "lbs"}, {"measurement": "Weight, mean ± SD", "setting": "[1]; Week 6, seven patients", "value": "167.5 ± 26.54", "unit": "lbs"}, {"measurement": "weight lost on average", "setting": "[1]; seven patients, six week treatment", "value": 5.86, "unit": "pounds"}, {"measurement": "appetite, patient reported", "setting": "[1]; six week treatment", "value": "decreased appetite"}, {"measurement": "withdrawal Y-BOCS score, average, after withdrawal", "setting": "[2]; 3 patients stopping tramadol hydrochloride without adding another agent, followed for two weeks", "value": 19.7}, {"measurement": "withdrawal Y-BOCS score, average, at stopping", "setting": "[2]; 3 patients stopping tramadol hydrochloride without adding another agent, start of withdrawal", "value": 14.3}, {"measurement": "adverse event leading to discontinuation", "setting": "[2]; another patient, during week 6", "value": "panic attack"}, {"measurement": "Y-BOCS scores during treatment", "setting": "[2]; [4]", "value": "decreased"}, {"measurement": "change in HAM-D scores", "setting": "[2]; [4]", "value": "no significant change"}, {"measurement": "Global Improvement CGI, mean ± SD, ENDPOINT", "setting": "[2]; endpoint of six week treatment, six patients, baseline 5.2 ± 0.8, 2=much improved, 3=minimally improved, 4=no change", "value": "2.3 ± 1.0"}, {"measurement": "Severity of Illness CGI, mean ± SD, ENDPOINT", "setting": "[2]; endpoint of six week treatment, six patients, baseline 5.3 ± 1.5, 4=moderately ill, 5=markedly ill, 6=severely ill", "value": "4.5 ± 1.2"}, {"measurement": "HAM-D, mean ± SD, ENDPOINT", "setting": "[2]; endpoint of six week treatment, six patients, baseline 27.7 ± 15.9", "value": "28.8 ± 9.8"}, {"measurement": "urges or pressures to perform the compulsions, patient reported", "setting": "[2]; obsessions persisted in a muted form", "value": "diminished"}, {"measurement": "adverse event leading to discontinuation", "setting": "[2]; one patient, during week 1", "value": "nausea and exacerbation of trichotillomania"}, {"measurement": "decrease in Y-BOCS scores within the first week", "setting": "[2]; three of the seven patients, rapid onset of response", "value": "greater than 6 point"}, {"measurement": "compulsive urges after the first dose", "setting": "[2]; two individuals, first 50 mg dose", "value": "alleviation"}, {"measurement": "Weight", "setting": "[3]; Month 3, 350 mg/day for 2 weeks, followed by 400 mg/day", "value": 127.0, "unit": "lbs"}, {"measurement": "Weight", "setting": "[3]; Month 4, 400 mg/day", "value": 124.5, "unit": "lbs"}, {"measurement": "Weight", "setting": "[3]; Month 5, 400 mg/day", "value": 124.75, "unit": "lbs"}, {"measurement": "Weight", "setting": "[3]; Month 6, 400 mg/day, alendronic acid started", "value": 124.5, "unit": "lbs"}, {"measurement": "Weight", "setting": "[3]; Month 7, 400 mg/day", "value": 127.0, "unit": "lbs"}, {"measurement": "Weight", "setting": "[3]; Month 8, 400 mg/day", "value": 125.0, "unit": "lbs"}, {"measurement": "Weight", "setting": "[3]; Month 9, 300 mg/day", "value": 128.0, "unit": "lbs"}, {"measurement": "Weight", "setting": "[3]; Month 10, 150 mg/day", "value": 127.5, "unit": "lbs"}, {"measurement": "Weight", "setting": "[3]; Month 11, 100 mg/day for 2 weeks, 50 mg/day for 1 week, then discontinued", "value": 131.5, "unit": "lbs"}, {"measurement": "Weight", "setting": "[3]; Week 2, 300 mg/day, baseline 129.5", "value": 128.25, "unit": "lbs"}, {"measurement": "Weight", "setting": "[3]; Week 3, 400 mg/day", "value": 127.0, "unit": "lbs"}, {"measurement": "Weight", "setting": "[3]; Week 4, 400 mg/day", "value": 127.25, "unit": "lbs"}, {"measurement": "Weight", "setting": "[3]; Week 6, 300 mg/day", "value": 126.0, "unit": "lbs"}, {"measurement": "Weight", "setting": "[3]; Week 7, 300 mg/day", "value": 126.3, "unit": "lbs"}, {"measurement": "Weight", "setting": "[3]; Week 8, 300 mg/day", "value": 126.0, "unit": "lbs"}, {"measurement": "weight after treatment was discontinued", "setting": "[3]; after the tramadol hydrochloride treatment was discontinued", "value": "regained"}, {"measurement": "effect on weight during treatment", "setting": "[3]; during the tramadol hydrochloride treatment", "value": "lost weight"}, {"measurement": "time to reported decrease in obsessions and compulsions", "setting": "OCD; 50 mg twice a day", "value": "≤ 24", "unit": "h"}, {"measurement": "Y-BOCS score", "setting": "OCD; after one week of treatment, score prior to treatment 26", "value": 19}]}
{"smiles": "COc1cccc([C@]2(O)CCCC[C@H]2CN(C)C)c1", "note": "(racemic) [tramadol, (±)cis-2-[(dimethylamino)methyl]-1(3-methoxyphenyl) cyclohexanol]", "values": [{"measurement": "side effects", "setting": "Tourette's syndrome", "value": "without any side effects"}]}
